Columns and labels:
Human δ-opioid (DOP) = molecular target: T1, Human δ-opioid (DOP) (Homo sapiens, UniProt P41143); experiment: Radioligand binding, human δ-opioid (DOP) membranes, FlashPlate, [3H]-Bremazocine; details: compound at 10 μM; for A1: inhibition of radioligand binding, human δ-opioid (DOP): [3H]-Bremazocine
T1 construct: purchased Perkin Elmer Biosignal
Outline: (§1)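 Cloned human receptor membranes were coated onto FlashPlate wells and incubated with radioligand and compound (added from a 0.5 mM DMSO daughter plate) for 1 hour at room temperature in the dark. Scintillation counting gave percent inhibition, with DMSO defining total and reference ligand defining non-specific binding.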

Human κ-Opioid (KOP) = molecular target: T2, Human κ-Opioid (KOP) (Homo sapiens, UniProt P41145); experiment: Radioligand binding, human κ-opioid (KOP) membranes, filtration, [3H]-Diprenorphine; details: compound at 10 μM; for A2: inhibition of radioligand binding, human κ-opioid (KOP): [3H]-Diprenorphine
T2 construct: purchased Perkin Elmer Biosignal
T2 sequence (P41145 whole entry): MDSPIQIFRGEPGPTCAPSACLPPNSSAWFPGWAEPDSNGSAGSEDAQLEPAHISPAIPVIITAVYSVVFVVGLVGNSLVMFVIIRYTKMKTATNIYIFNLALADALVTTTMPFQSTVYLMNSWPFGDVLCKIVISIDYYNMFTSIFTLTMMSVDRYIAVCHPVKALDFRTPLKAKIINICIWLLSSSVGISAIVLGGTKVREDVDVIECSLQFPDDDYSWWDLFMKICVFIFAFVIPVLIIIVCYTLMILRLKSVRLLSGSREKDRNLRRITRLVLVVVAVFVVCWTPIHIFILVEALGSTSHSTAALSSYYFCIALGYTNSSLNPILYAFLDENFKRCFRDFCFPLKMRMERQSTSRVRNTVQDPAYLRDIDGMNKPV
Outline: (§2)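 Filtration binding on cloned human receptor membranes (1 Unit/well), [125I]-Substance P for NK1 and [3H]-Diprenorphine for KOP, 1 h at room temperature. Filters PEI-presoaked, washed with cold 50 mM Tris-HCl pH 7.4, counted by scintillation; percent inhibition calculated, reference ligand defining non-specific binding.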

Human Melanocortin (MC3) = molecular target: T3, Human Melanocortin (MC3) (Homo sapiens, UniProt P41968); experiment: Radioligand binding, human melanocortin MC3 membranes, FlashPlate, [125I]-NDP-αMSH; details: compound at 10 μM; for A3: inhibition of radioligand binding, human melanocortin (MC3): [125I]-NDP-αMSH
T3 construct: purchased Perkin Elmer Biosignal
T3 sequence (P41968 whole entry): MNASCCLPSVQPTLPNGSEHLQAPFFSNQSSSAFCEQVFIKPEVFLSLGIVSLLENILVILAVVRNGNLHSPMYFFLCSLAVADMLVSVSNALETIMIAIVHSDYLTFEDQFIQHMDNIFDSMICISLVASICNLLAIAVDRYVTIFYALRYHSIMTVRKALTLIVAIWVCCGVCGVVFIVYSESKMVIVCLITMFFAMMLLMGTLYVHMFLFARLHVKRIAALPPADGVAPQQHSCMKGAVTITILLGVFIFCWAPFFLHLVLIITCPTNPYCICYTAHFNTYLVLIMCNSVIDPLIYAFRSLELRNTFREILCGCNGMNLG
Outline: as §1

Human Melanocortin (MC4) = molecular target: T4, Human Melanocortin (MC4) (Homo sapiens, UniProt P32245); experiment: Radioligand binding, human melanocortin MC4 membranes, FlashPlate, [125I]-NDP-αMSH; details: compound at 10 μM; for A4: inhibition of radioligand binding, human melanocortin (MC4): [125I]-NDP-αMSH
T4 construct: purchased Perkin Elmer Biosignal
T4 sequence (P32245 whole entry): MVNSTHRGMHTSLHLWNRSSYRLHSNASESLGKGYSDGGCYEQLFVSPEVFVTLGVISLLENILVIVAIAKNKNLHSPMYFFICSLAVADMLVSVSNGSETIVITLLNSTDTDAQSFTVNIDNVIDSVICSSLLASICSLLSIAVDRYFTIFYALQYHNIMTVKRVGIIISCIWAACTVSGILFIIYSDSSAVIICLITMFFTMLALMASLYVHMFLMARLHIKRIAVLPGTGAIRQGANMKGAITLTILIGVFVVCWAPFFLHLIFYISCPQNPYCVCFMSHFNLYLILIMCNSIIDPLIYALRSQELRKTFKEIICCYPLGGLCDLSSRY
Outline: as §1

Human melanocortin (MC5) = molecular target: T5, Human melanocortin (MC5) (Homo sapiens, UniProt P33032); experiment: Radioligand binding, human melanocortin MC5 membranes, FlashPlate, [125I]-NDP-αMSH; details: compound at 10 μM; for A5: inhibition of radioligand binding, human melanocortin (MC5): [125I]-NDP-αMSH
T5 construct: purchased Perkin Elmer Biosignal
T5 sequence (P33032 whole entry): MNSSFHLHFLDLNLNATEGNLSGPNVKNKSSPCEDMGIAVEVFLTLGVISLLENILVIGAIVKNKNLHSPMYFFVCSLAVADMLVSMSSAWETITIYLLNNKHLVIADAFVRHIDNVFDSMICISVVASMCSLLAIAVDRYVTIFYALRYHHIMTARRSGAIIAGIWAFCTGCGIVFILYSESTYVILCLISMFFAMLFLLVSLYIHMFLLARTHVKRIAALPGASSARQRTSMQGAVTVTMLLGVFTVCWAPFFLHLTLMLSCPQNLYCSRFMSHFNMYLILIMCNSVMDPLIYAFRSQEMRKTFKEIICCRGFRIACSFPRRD
Outline: as §1

[1] = molecular target: T6, Human melanin-concentrating hormone (MCH1) (Homo sapiens, UniProt Q99705); experiment: Radioligand binding, human melanin-concentrating hormone MCH1 membranes, FlashPlate, [125I]-S36057; details: compound at 10 μM; for A6: inhibition of radioligand binding, human melanin-concentrating hormone (MCH1): [125I]-S36057
T6 construct: purchased Perkin Elmer Biosignal
T6 sequence (Q99705 whole entry): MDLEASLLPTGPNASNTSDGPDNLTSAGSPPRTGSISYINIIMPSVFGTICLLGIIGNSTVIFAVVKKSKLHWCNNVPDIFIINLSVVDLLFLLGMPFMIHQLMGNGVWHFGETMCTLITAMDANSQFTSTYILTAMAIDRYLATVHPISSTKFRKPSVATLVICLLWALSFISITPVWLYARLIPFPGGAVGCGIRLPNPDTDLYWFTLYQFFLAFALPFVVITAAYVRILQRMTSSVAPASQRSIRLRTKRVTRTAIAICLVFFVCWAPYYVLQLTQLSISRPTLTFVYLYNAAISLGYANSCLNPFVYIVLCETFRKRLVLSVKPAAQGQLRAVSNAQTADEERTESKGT
Outline: as §1

Human μ-opioid (MOP) = molecular target: T7, Human μ-opioid (MOP) (Homo sapiens, UniProt P35372); experiment: Radioligand binding, human μ-opioid (MOP) membranes, FlashPlate, [3H]-Naloxone; details: compound at 10 μM; for A7: inhibition of radioligand binding, human μ-opioid (MOP): [3H]-Naloxone
T7 construct: purchased Perkin Elmer Biosignal
T7 sequence (P35372 whole entry): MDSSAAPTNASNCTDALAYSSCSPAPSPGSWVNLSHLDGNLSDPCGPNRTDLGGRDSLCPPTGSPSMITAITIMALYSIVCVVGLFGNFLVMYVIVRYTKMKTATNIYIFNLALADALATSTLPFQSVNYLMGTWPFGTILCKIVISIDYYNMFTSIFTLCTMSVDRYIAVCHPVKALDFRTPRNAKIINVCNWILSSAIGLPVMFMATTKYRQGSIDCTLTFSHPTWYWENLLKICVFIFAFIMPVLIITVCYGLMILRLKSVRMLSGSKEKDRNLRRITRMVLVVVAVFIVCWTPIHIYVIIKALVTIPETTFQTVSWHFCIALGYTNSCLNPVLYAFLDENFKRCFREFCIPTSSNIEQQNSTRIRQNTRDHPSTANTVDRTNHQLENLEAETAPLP
Outline: as §1

Human neurokinin (NK1) = molecular target: T8, Human neurokinin (NK1) (Homo sapiens, UniProt P25103); experiment: Radioligand binding, human neurokinin NK1 membranes, filtration, [125I]-Substance P; details: compound at 10 μM; for A8: inhibition of radioligand binding, human neurokinin (NK1): [125I]-Substance P
T8 construct: purchased Perkin Elmer Biosignal
T8 sequence (P25103 whole entry): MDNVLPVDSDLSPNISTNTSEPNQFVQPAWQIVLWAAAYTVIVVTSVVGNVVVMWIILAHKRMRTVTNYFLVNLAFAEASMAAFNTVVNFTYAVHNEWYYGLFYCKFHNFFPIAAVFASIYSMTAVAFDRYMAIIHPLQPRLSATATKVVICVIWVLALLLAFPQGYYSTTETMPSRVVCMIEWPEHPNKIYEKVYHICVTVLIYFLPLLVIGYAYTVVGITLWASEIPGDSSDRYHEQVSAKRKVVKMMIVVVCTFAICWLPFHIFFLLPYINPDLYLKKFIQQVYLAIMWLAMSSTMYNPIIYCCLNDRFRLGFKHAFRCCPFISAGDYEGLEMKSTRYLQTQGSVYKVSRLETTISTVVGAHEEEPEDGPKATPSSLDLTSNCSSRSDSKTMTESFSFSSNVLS
Outline: as §2

[2] = molecular target: T9, Human neuropeptide Y (NPY-Y1) (Homo sapiens, UniProt P25929); experiment: Radioligand binding, human neuropeptide Y NPY-Y1 membranes, FlashPlate, [125I]-PYY; details: compound at 10 μM; for A9: inhibition of radioligand binding, human neuropeptide Y (NPY-Y1): [125I]-PYY
T9 construct: purchased Perkin Elmer Biosignal
T9 sequence (P25929 1-384): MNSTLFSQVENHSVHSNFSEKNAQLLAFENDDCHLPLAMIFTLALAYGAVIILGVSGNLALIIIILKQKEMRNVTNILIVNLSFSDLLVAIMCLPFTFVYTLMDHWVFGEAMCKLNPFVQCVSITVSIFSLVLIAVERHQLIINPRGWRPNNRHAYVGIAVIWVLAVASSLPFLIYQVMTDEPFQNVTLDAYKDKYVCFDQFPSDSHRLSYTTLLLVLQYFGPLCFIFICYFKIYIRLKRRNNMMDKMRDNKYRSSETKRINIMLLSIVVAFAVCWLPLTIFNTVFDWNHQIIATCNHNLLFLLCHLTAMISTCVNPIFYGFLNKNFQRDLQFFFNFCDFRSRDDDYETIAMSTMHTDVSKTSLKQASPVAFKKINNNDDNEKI
Outline: as §1

Human opioid (ORL1) = molecular target: T10, Human opioid (ORL1) (Homo sapiens, UniProt P41146); experiment: Radioligand binding, human opioid ORL1 membranes, FlashPlate, [125I]-Nociceptin; details: compound at 10 μM; for A10: inhibition of radioligand binding, human opioid (ORL1): [125I]-Nociceptin
T10 construct: purchased Perkin Elmer Biosignal
T10 sequence (P41146 whole entry): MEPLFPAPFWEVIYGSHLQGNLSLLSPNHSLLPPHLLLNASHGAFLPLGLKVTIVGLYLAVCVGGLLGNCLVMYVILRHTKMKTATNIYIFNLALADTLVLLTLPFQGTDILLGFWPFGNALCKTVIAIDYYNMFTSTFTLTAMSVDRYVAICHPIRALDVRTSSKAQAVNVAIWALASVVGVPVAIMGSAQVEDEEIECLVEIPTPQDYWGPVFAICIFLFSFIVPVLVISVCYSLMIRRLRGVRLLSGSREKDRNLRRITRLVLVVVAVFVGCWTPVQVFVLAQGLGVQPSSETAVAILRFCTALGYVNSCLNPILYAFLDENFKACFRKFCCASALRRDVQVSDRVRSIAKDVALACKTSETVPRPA
Outline: as §1

Mouse urotensin (mUR2) = molecular target: T11, Mouse urotensin (mUR2) (Mus musculus, UniProt Q8VIH9); experiment: Radioligand binding, mouse urotensin mUR2 membranes, FlashPlate, [125I]-Urotensin II; details: compound at 10 μM; for A11: inhibition of radioligand binding, mouse urotensin (mUR2): [125I]-Urotensin II
T11 construct: purchased Perkin Elmer Biosignal
T11 sequence (Q8VIH9 1-385): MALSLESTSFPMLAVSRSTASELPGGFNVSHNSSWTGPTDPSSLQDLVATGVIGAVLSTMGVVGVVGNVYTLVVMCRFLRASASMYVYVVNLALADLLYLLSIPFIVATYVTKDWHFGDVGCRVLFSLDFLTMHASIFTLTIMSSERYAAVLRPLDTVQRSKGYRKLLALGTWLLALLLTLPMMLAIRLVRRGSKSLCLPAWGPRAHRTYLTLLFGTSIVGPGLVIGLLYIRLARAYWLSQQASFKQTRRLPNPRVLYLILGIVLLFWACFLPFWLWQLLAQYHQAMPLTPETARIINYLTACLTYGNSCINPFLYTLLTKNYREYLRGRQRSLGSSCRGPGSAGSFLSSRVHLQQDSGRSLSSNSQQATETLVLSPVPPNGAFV
Outline: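 Cloned mouse urotensin (mUR2) receptor membranes from Perkin Elmer Biosignal were immobilized in FlashPlate microplates using a proprietary coating. Each well got 19.5 μl buffer, then 0.5 μl of DMSO, reference ligand, or compound. Adding 5 μl of [125I]-Urotensin II, diluted to 5× final concentration in binding buffer, started binding. Plates were sealed with TopSeal-A and incubated 1 hour at room temperature in the dark. Wells were counted for 30 seconds each on a TopCount after a 60-second delay, and percentage inhibition was calculated.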

T1 sequence (P41143 whole entry): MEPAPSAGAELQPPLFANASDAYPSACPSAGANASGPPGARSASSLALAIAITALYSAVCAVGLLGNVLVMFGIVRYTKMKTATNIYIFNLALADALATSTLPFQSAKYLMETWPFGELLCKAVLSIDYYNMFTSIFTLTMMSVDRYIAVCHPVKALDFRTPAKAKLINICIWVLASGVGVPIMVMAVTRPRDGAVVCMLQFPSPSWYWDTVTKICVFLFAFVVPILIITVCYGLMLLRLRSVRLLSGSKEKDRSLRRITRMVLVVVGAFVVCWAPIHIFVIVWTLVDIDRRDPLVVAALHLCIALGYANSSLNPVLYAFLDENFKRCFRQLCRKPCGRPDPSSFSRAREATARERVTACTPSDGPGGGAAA

Q: What does the source list for `COC[C@H]1OC(OCc2ccc(Cl)cc2)[C@H](NC(=O)CCCNC(=N)N)[C@@H](OCc2ccc(-c3ccccc3)cc2)[C@@H]1O` (stereo partly drawn) [compound 30]?
A: A1 radioligand binding inhibition (Human δ-opioid (DOP); human δ-opioid (DOP) membranes): − (“−” indicates less than 50% inhibition at 10 μM); A2 radioligand binding inhibition (Human κ-Opioid (KOP); human κ-opioid (KOP) membranes): − (“−” indicates less than 50% inhibition at 10 μM); A3 radioligand binding inhibition (Human Melanocortin (MC3); human melanocortin MC3 membranes): + (“+” indicates greater than 50% inhibition at 10 μM); A4 radioligand binding inhibition (Human Melanocortin (MC4); human melanocortin MC4 membranes): + (“+” indicates greater than 50% inhibition at 10 μM); A5 radioligand binding inhibition (Human melanocortin (MC5); human melanocortin MC5 membranes): + (“+” indicates greater than 50% inhibition at 10 μM); A6 radioligand binding inhibition ([1]; human MCH1 membranes): + (“+” indicates greater than 50% inhibition at 10 μM); A7 radioligand binding inhibition (Human μ-opioid (MOP); human μ-opioid (MOP) membranes): + (“+” indicates greater than 50% inhibition at 10 μM); A8 radioligand binding inhibition (Human neurokinin (NK1); human neurokinin NK1 membranes): + (“+” indicates greater than 50% inhibition at 10 μM); A9 radioligand binding inhibition ([2]; human NPY-Y1 membranes): − (“−” indicates less than 50% inhibition at 10 μM); A10 radioligand binding inhibition (Human opioid (ORL1); human ORL1 membranes): − (“−” indicates less than 50% inhibition at 10 μM); A11 radioligand binding inhibition (Mouse urotensin (mUR2); mouse urotensin mUR2 membranes): − (“−” indicates less than 50% inhibition at 10 μM)

Q: `CSC1O[C@H](COCc2ccc3ccccc3c2)[C@@H](O)[C@@H](OCc2ccc(-c3ccccc3)cc2)[C@H]1NC(=O)CCCNC(=N)N` (stereo partly drawn) [compound 300] was tested. Which “A1: inhibition of radioligand binding, human δ-opioid (DOP)” value (Human δ-opioid (DOP)) did it give?
A: − (“−” indicates less than 50% inhibition at 10 μM)

Q: What about the “A2: inhibition of radioligand binding, human κ-opioid (KOP)” value (Human κ-Opioid (KOP)) of the same molecule?
A: − (“−” indicates less than 50% inhibition at 10 μM)

Q: What about the “A3: inhibition of radioligand binding, human melanocortin (MC3)” value (Human Melanocortin (MC3)) of the same molecule?
A: − (“−” indicates less than 50% inhibition at 10 μM)

Q: What about the “A4: inhibition of radioligand binding, human melanocortin (MC4)” value (Human Melanocortin (MC4)) of the same molecule?
A: − (“−” indicates less than 50% inhibition at 10 μM)

Q: What about the “A5: inhibition of radioligand binding, human melanocortin (MC5)” value (Human melanocortin (MC5)) of the same molecule?
A: + (“+” indicates greater than 50% inhibition at 10 μM)

Q: What about the “A6: inhibition of radioligand binding, human melanin-concentrating hormone (MCH1)” value [1] of the same molecule?
A: − (“−” indicates less than 50% inhibition at 10 μM)

Q: What about the “A7: inhibition of radioligand binding, human μ-opioid (MOP)” value (Human μ-opioid (MOP)) of the same molecule?
A: − (“−” indicates less than 50% inhibition at 10 μM)

Q: What about the “A8: inhibition of radioligand binding, human neurokinin (NK1)” value (Human neurokinin (NK1)) of the same molecule?
A: + (“+” indicates greater than 50% inhibition at 10 μM)

Q: What about the “A9: inhibition of radioligand binding, human neuropeptide Y (NPY-Y1)” value [2] of the same molecule?
A: − (“−” indicates less than 50% inhibition at 10 μM)

Q: What about the “A10: inhibition of radioligand binding, human opioid (ORL1)” value (Human opioid (ORL1)) of the same molecule?
A: − (“−” indicates less than 50% inhibition at 10 μM)

Q: And the “A11: inhibition of radioligand binding, mouse urotensin (mUR2)” value (Mouse urotensin (mUR2))?
A: − (“−” indicates less than 50% inhibition at 10 μM)

Q: Which “A1: inhibition of radioligand binding, human δ-opioid (DOP)” value (Human δ-opioid (DOP)) does the source give for `NCCCC(=O)NC1C(OCc2ccc(Cl)cc2)OC(COCc2ccccc2)C(O)C1OCc1ccc(Cl)cc1` (single isomer, unassigned) [compound 491] here?
A: − (“−” indicates less than 50% inhibition at 10 μM)

Q: And the “A2: inhibition of radioligand binding, human κ-opioid (KOP)” value (Human κ-Opioid (KOP))?
A: − (“−” indicates less than 50% inhibition at 10 μM)

Q: And the “A3: inhibition of radioligand binding, human melanocortin (MC3)” value (Human Melanocortin (MC3))?
A: − (“−” indicates less than 50% inhibition at 10 μM)

Q: What about the “A4: inhibition of radioligand binding, human melanocortin (MC4)” value (Human Melanocortin (MC4); 10 µM) of the same molecule?
A: − (“−” indicates less than 50% inhibition at 10 μM)

Q: And the “A5: inhibition of radioligand binding, human melanocortin (MC5)” value (Human melanocortin (MC5); 10 µM)?
A: − (“−” indicates less than 50% inhibition at 10 μM)

Q: And the “A6: inhibition of radioligand binding, human melanin-concentrating hormone (MCH1)” value ([1]; 10 µM)?
A: − (“−” indicates less than 50% inhibition at 10 μM)

Q: What about the “A7: inhibition of radioligand binding, human μ-opioid (MOP)” value (Human μ-opioid (MOP)) of the same molecule?
A: − (“−” indicates less than 50% inhibition at 10 μM)

Q: What about the “A8: inhibition of radioligand binding, human neurokinin (NK1)” value (Human neurokinin (NK1)) of the same molecule?
A: + (“+” indicates greater than 50% inhibition at 10 μM)

Q: And the “A9: inhibition of radioligand binding, human neuropeptide Y (NPY-Y1)” value [2]?
A: − (“−” indicates less than 50% inhibition at 10 μM)

Q: And the “A10: inhibition of radioligand binding, human opioid (ORL1)” value (Human opioid (ORL1))?
A: + (“+” indicates greater than 50% inhibition at 10 μM)

Q: What about the “A11: inhibition of radioligand binding, mouse urotensin (mUR2)” value (Mouse urotensin (mUR2)) of the same molecule?
A: − (“−” indicates less than 50% inhibition at 10 μM)

— patent publication US20080009418A1, “Selective Inhibitors” (Alchemia LTD., priority 2004, published 2008)
